# In US10633419B2, “Immunomodulators” (BRISTOL-MYERS SQUIBB COMPANY, priority 2014, dated 2020):
# pIC50: −log10 of the molar value. Starred links: 1 amine or outer side, 2 acyl side, 3 side chain; linkers in the order of their positions; H or OH if unused. Positions of bridges follow the written chain, without caps; N, C: chain ends. Non-standard residues stand in square brackets, D forms with d. Residues, ends and D or L forms follow the SMILES beside them. ξ: configuration not given here. *: point of attachment. X6 = O=C(O)CCCCCCCCCCCCCCCCC(=O)N[C@@H](CCC(=O)NCCCOCCOCCOCCCN*)C(=O)O; Trp(1-CH2COOH) = N[C@@H](Cc1cn(CC(=O)O)c2ccccc12)C(=O)O; Phe(3,4,5-F3) = N[C@@H](Cc1cc(F)c(F)c(F)c1)C(=O)O; X10 = O=C(O)CCCCCCCCCCCCCCC(=O)N[C@@H](CN*)C(=O)O; Phe(4-F) = N[C@@H](Cc1ccc(F)cc1)C(=O)O; d(cisHyp) = O=C(O)[C@H]1C[C@@H](O)CN1; βAsp = O=C(O)[C@H](CC(=O)[*:2])N[*:1]; PEG6 = NCCOCCOCCOCCOCCOCCOCCC(=O)O; Palmitoyl = CCCCCCCCCCCCCCCC(=O)*; Hyp = O=C(O)[C@@H]1C[C@@H](O)CN1; NMeF = CN[C@@H](Cc1ccccc1)C(=O)O; NMeNle = CCCC[C@H](NC)C(=O)O; Pip = O=C(O)[C@@H]1CCCCN1; dPip = O=C(O)[C@H]1CCCCN1; NMeA = CN[C@@H](C)C(=O)O; Pra = C#CC[C@H](N)C(=O)O; Dab = NCC[C@H](N)C(=O)O; Dap = NC[C@H](N)C(=O)O; ξC = NC(CS)C(=O)O
# Molecular target: T1, PD-L1 (Homo sapiens, UniProt Q9NZQ7)
# T1 construct: hPDL1(19-239)-TVMV-His; made in house; host or cells: HEK293T
# Experiment: PD-1/PD-L1 Homogenous Time-Resolved Fluorescence (HTRF) binding assay (PD-1-Ig/PD-L1-His)
# Settings: inhibition of PD-1-Ig binding to PD-L1-TVMV-His; value given as range class; read-out: HTRF IC50
# Excerpt: The ability of the macrocyclic peptides of the present disclosure to bind to PD-L1 was investigated using a PD-1/PD-L1 Homogenous Time-Resolved Fluorescence (HTRF) binding assay.
# Homogenous Time-Resolved Fluorescence (HTRF) Assays of Binding of Soluble PD-1 to Soluble PD-L1. Soluble PD-1 and soluble PD-L1 refers to proteins with carboxyl-end truncations that remove the transmembrane-spanning regions and are fused to heterologous sequences, specifically the Fc portion of the human immunoglobuling G sequence (Ig) or the hexahistidine epitope tag (His). All binding studies were performed in an HTRF assay buffer consisting of dPBS supplemented with 0.1% (w/v) bovine serum albumin and 0.05% (v/v) Tween-20. For the PD-1-Ig/PD-L1-His binding assay, inhibitors were pre-incubated with PD-L1-His (10 nM final) for 15 m in 4 μl of assay buffer, followed by addition of PD-1-Ig (20 nM final) in 1 μl of assay buffer and further incubation for 15m. PD-L1 fusion proteins from either human, cynomologous macaques, mouse, or other species were used. HTRF detection was achieved using europium crypate-labeled anti-Ig monoclonal antibody (1 nM final) and allophycocyanin (APC) labeled anti-His monoclonal antibody (20 nM final). Antibodies were diluted in HTRF detection buffer and 5 μl was dispensed on top of binding reaction. The reaction was allowed to equilibrate for 30 minutes and signal (665 nm/620 nm ratio) was obtained using an EnVision fluorometer. Additional binding assays were established between PD-1-Ig/PD-L2-His (20 and 5 nM, respectively), CD80-His/PD-L1-Ig (100 and 10 nM, respectively) and CD80-His/CTLA4-Ig (10 and 5 nM, respectively). Binding/competition studies between biotinylated Compound No. 71 and human PD-L1-His were performed as follows. Macrocyclic peptide inhibitors were pre-incubated with PD-L1-His (10 nM final) for 60 minutes in 4 μl of assay buffer followed by addition of biotinylated Compound No. 71 (0.5 nM final) in 1 μl of assay buffer. Binding was allowed to equilibrate for 30 minutes followed by addition of europium crypated labeled Streptavidin (2.5 pM final) and APC-labeled anti-His (20 nM final) in 5 μl of HTRF buffer. The reaction was allowed to equilibrate for 30m and signal (665 nm/620 nm ratio) was obtained using an EnVision fluorometer.
# Recombinant Proteins. Carboxyl-truncated human PD-1 (amino acids 25-167) with a C-terminal human Ig epitope tag [hPD-1 (25-167)-3S-IG] and human PD-L1 (amino acids 18-239) with a C-terminal His epitope tag [hPD-L1(19-239)-tobacco vein mottling virus protease cleavage site (TVMV)-His] were expressed in HEK293T cells and purified sequentially by recombinant Protein A affinity chromatography and size exclusion chromatography. Human PD-L2-His (Sino Biologicals), CD80-His (Sino Biologicals), CTLA4-Ig (RnD Systems) were all obtained through commercial sources.
# T1 sequence (Q9NZQ7 with tags, fused parts or gaps): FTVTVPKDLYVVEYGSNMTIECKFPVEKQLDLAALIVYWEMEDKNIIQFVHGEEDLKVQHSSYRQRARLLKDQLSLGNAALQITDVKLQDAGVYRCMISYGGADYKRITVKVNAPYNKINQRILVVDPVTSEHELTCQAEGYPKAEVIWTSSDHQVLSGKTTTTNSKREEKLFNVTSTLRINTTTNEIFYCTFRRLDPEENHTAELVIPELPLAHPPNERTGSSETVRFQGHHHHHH
row,SMILES,pIC50
1,CCCCCCCCCCCCCCCC(=O)NCCCC[C@H](NC(=O)CCOCCOCCOCCOCCOCCOCCNC(=O)CNC(=O)C1CSCC(=O)N[C@@H](Cc2ccc(O)cc2)C(=O)N(C)[C@@H](C)C(=O)N[C@@H](CC(=O)O)C(=O)N2CCC[C@H]2C(=O)N[C@@H](Cc2cnc[nH]2)C(=O)N[C@@H](CC(C)C)C(=O)N2C[C@H](O)C[C@H]2C(=O)N[C@@H](Cc2c[nH]c3ccccc23)C(=O)N[C@@H](CO)C(=O)N[C@@H](Cc2c[nH]c3ccccc23)C(=O)N(C)[C@@H](CCCC)C(=O)N(C)[C@@H](CCCC)C(=O)N[C@@H](CCCNC(=N)N)C(=O)N1)C(N)=O (some centres unmarked) [Example 11029] ({CH2CO}-Y[NMeA]DPHL[Hyp]WSW[NMeNle][NMeNle]R[ξC]G[PEG6]K(Palmitoyl)-NH2; thioether N-14),5.80 to 7.00
2,"CCCC[C@H]1C(=O)N2C[C@H](O)C[C@@H]2C(=O)N[C@@H](CC(=O)O)C(=O)N[C@@H](C(C)C)C(=O)N(C)[C@@H](Cc2ccccc2)C(=O)N[C@@H](Cc2ccc(O)cc2)C(=O)N2CCCC[C@@H]2C(=O)N[C@@H](Cc2c[nH]c3ccccc23)C(=O)N[C@@H](Cc2ccc(O)cc2)C(=O)N[C@@H](CC(C)C)C(=O)N[C@H](C(=O)NCC(=O)NCC(=O)NCC(=O)N[C@@H](CCCCN)C(N)=O)CSCC(=O)N[C@@H](Cc2cc(F)c(F)c(F)c2)C(=O)N(C)[C@@H](Cc2ccccc2)C(=O)N1C [Example 3623] ({CH2CO}-[Phe(3,4,5-F3)][NMeF][NMeNle][d(cisHyp)]DV[NMeF]Y[dPip]WYLCGGGK-NH2; thioether N-13)",8.00 to 9.52

# Next, values leading:
row,pIC50,SMILES
1,8.00 to 9.52,CCCC[C@H]1C(=O)N(C)[C@@H](CCCC)C(=O)N[C@@H](CC(C)C)C(=O)N[C@H](C(=O)NCC(=O)N[C@@H](CC(=O)NCCOCCOCCOCCOCCOCCOCCC(=O)NC[C@H](NC(=O)CCCCCCCCCCCCCCC(=O)O)C(=O)O)C(=O)O)CSCC(=O)N[C@@H](Cc2ccc(O)cc2)C(=O)N(C)[C@@H](C)C(=O)N[C@@H](CC(N)=O)C(=O)N2CCC[C@H]2C(=O)N[C@@H](CN)C(=O)N[C@@H](CC(C)C)C(=O)N2C[C@H](O)C[C@@H]2C(=O)N[C@@H](Cc2c[nH]c3ccccc23)C(=O)N[C@@H](CCN)C(=O)N[C@@H](Cc2cn(CC(=O)O)c3ccccc23)C(=O)N1C [Example 11164] ({CH2CO}-Y[NMeA]NP[Dap]L[d(cisHyp)]W[Dab][Trp(1-CH2COOH)][NMeNle][NMeNle]LCG[βAsp][PEG6]-X10; thioether N-14)
2,8.00 to 9.52,CCCC[C@H]1C(=O)N(C)[C@@H](CCCC)C(=O)N[C@@H](CC(C)C)C(=O)N[C@H](C(=O)NCC(=O)N[C@@H](CC(=O)NCCCOCCOCCOCCCNC(=O)CC[C@H](NC(=O)CCCCCCCCCCCCCCCCC(=O)O)C(=O)O)C(=O)O)CSCC(=O)N[C@@H](Cc2ccc(F)cc2)C(=O)N2CCCC[C@H]2C(=O)N[C@@H](CC(=O)O)C(=O)N2CCC[C@H]2C(=O)N[C@@H](CN)C(=O)N[C@@H](CCC(=O)O)C(=O)N2C[C@H](O)C[C@H]2C(=O)N[C@@H](Cc2c[nH]c3ccccc23)C(=O)N[C@@H](CCN)C(=O)N[C@@H](Cc2cn(CC(=O)O)c3ccccc23)C(=O)N1C [Example 11266] ({CH2CO}-[Phe(4-F)][Pip]DP[Dap]E[Hyp]W[Dab][Trp(1-CH2COOH)][NMeNle][NMeNle]LCGD(X6)-OH; thioether N-14)
3,7.00 to 8.00,C#CC[C@H](NC(=O)CNC(=O)[C@@H]1CSCC(=O)N[C@@H](Cc2ccc(O)cc2)C(=O)N(C)[C@@H](C)C(=O)N[C@@H](CC(N)=O)C(=O)N2CCC[C@H]2C(=O)N[C@@H](CN)C(=O)N[C@@H](CC(C)C)C(=O)N2C[C@H](O)C[C@H]2C(=O)N[C@@H](Cc2c[nH]c3ccccc23)C(=O)N[C@@H](CO)C(=O)N[C@@H](Cc2cn(CC(=O)O)c3ccccc23)C(=O)N(C)[C@@H](CCCC)C(=O)N(C)[C@@H](CCCC)C(=O)N[C@@H](CC(C)C)C(=O)N1)C(N)=O [INT 1300X] ({CH2CO}-Y[NMeA]NP[Dap]L[Hyp]WS[Trp(1-CH2COOH)][NMeNle][NMeNle]LCG[Pra]-NH2; thioether N-14)
